Measured values reported in patent US12410124B2 (priority 2019, dated 2025).
Where two headings read alike, the source gives them in different places.

Legend:
primary glial cells = experiment: Inhibition of the NO release of primary glial cells induced by LPS; assay type: cell-based, rat; conditions: for inhibition at 2 µM / inhibition at 5 µM / inhibition at 10 µM / inhibition at 20 µM: Rattus norvegicus, Glial cell, read-out: NO inhibition (%)
Description: Lipopolysaccharide (LPS) is a main component of the cell wall of Gram-negative bacteria. It is a potent inflammatory factor that can directly activate gliocytes, and the activated gliocytes secrete a large amount of inflammation mediators such as tumor necrosis factor, interleukin, and nitric oxide, thus causing inflammatory reactions and oxidative stress reactions and eventually leading to neuronal denaturation and death. In recent years, the targeted injection of LPS into rat substantia nigra or striatum to induce neuroinflammation can successfully establish PD models, which can simulate most of the clinical manifestations and pathological features of PD, and are used for the study on the neuroinflammation mechanism associated with PD. LPS-induced primary glial cell PD inflammation model is suitable for the preliminary anti-neuroinflammation screening for neuroprotective agents. LPS is used to directly activate primary glial cells to simulate the pathogenesis mechanism of neuroinflammation, and the inhibitory activity of the target compounds on the inflammatory response of primary glial cells can be investigated.
The materials were taken from the brain tissue of fetal rat, for primary glial cell culture. At 7 to 10 days of the culture, LPS was added for the activation of nitric oxide (NO) release in glial cells. When a target compound was added, the reduction value for NO content in the cell culture medium was measured, to evaluate the anti-neuroinflammation activity of the compound. The experiment included blank control group, LPS model group, positive control group (caffeic acid phenethyl ester, CAPE), prototype control group (styryl sulfone compounds 3B, 3C, 3D, and 3G, the structures of which compounds are shown as above), and target compound group.

midbrain TH = experiment: Midbrain TH expression in MPTP Parkinson's disease model mouse (western-blotting); assay type: in vivo; conditions: midbrain total protein, GAPDH internal reference, gavage 21 days after MPTP modeling
Protocol: (§1) Neurotoxins can be used to establish PD animal models. Currently, 1-methyl-4-phenyl-1,2,3,6-tetrahydropyridine (MPTP) is the sole synthetic toxin which is recognized to induce PD symptoms in human and non-human primates and in mice. Using MPTP subacute modeling method, C57BL/6J male mice were intraperitoneally injected with MPTP 30 mg/kg, once a day for 5 consecutive days. The experiment animals were divided into blank control group, MPTP model group, and compound treatment group. For the […] compound treatment group, the compound was administrated by gavage for 21 consecutive days after the completion of modeling; for the MPTP model group, the normal saline was administrated by gavage for 21 consecutive days after the completion of modeling; and for the blank control group, the normal saline was first intraperitoneally injected for 5 days, and then administrated by gavage for 21 days.
The main cause of PD lies in the pathological changes in the substantia nigra-striatum projection system of the brain and the progressive degeneration and loss of dopaminergic neurons. Tyrosine hydroxylase (TH) is the first enzyme in the biosynthesis of catecholamine neurotransmitters, as well as the first rate-limiting enzyme in the dopamine synthesis. It plays an important role in the synthesis and metabolism of the neurotransmitter DA. The TH in PD animal models and patients has a wide range of abnormal changes, from the gene expression to the enzyme protein content and enzyme activity. The detection of the TH expression in the midbrain and substantia nigra of PD model mice can be used to evaluate the neuroprotective activity of the compound.
Half of experiment mice in each group were taken to extract the total midbrain protein, and the change in the midbrain TH was determined by western-blotting using GAPDH as the internal reference. The experiment included blank control group, MPTP model group, positive control group (caffeic acid phenethyl ester, CAPE), prototype control group (styryl sulfone compounds 3B, 3C, 3D, and 3G, whose structures are shown as above), and target compound group.

midbrain CD11b = experiment: Midbrain CD11b protein expression in MPTP Parkinson's disease model mouse (western-blotting); assay type: in vivo; conditions: for Expression (CD11b/GAPDH): midbrain, MPTP Parkinson's disease model mouse, western-blotting
Protocol: as §1
(§2) Neuron-glial cell network homeostasis disorder is an important factor for the selective and progressive death of substantia nigra dopaminergic neurons in PD. In the neurotoxic effect of MPTP, the excessive activations of microglial cells and astrocytes produce a variety of inflammatory cytokines and reactive oxygen species (ROS). These inflammatory factors and ROS amplify their respective toxicities and mediate malignant feedback loop, causing a cascade inflammation response and aggravating the pathological process of PD. CD11b and GFAP are the marker proteins for activations of microglial cells and astrocytes, respectively. Therefore, the effect of the target compounds on the activations of the microglial cells and astrocytes in the substantia nigra, hippocampus, and midbrain areas of MPTP-induced PD mice can be investigated, to explore the mechanism of the anti-PD effect of the target compounds by inhibiting the neuroinflammation.
[…] The experiment included blank control group, MPTP model group, positive control group (caffeic acid phenethyl ester, CAPE), prototype control group (styryl sulfone compounds 3B, 3C, 3D), and 3G, whose structures are shown as above), and target compound group.

hippocampus GFAP = experiment: Number of hippocampus astrocytes with GFAP positive expression in MPTP Parkinson's disease model mouse (immunohistochemistry); assay type: in vivo; conditions: for Positive cell number (astrocytes with GFAP positive expression): hippocampus, MPTP Parkinson's disease model mouse, immunohistochemistry
Protocol: as §1, §2
Half of experiment mice in each group were taken to separate the midbrain after perfusion and fixation. The tissue was trimmed, and the hippocampus area was taken to prepare paraffin sections. The GFAP immunohistochemical staining was performed for the statistics of the change in the number of astrocytes with GFAP positive expression. The experiment included blank control group, MPTP model group, positive control group (caffeic acid phenethyl ester, CAPE), prototype control group (styryl sulfone compounds 3B, 3C, 3D, and 3G, whose structures are shown as above), and target compound group.

HO-1 = experiment: Midbrain HO-1 expression in MPTP Parkinson's disease model mouse (western blot); assay type: in vivo; conditions: for Expression (HO-1/GAPDH): midbrain, MPTP Parkinson's disease model mouse, western blot
Protocol: as §1
Oxidative stress is an important pathogenic mechanism of PD. Dopaminergic neurons are more sensitive to oxidative stress and are more susceptible to oxidative stress damage. Heme oxygenase (HO-1), a phase II enzyme, is also a well-known antioxidase. It plays an important protective role by catalyzing the conversion of free radicals into non-toxic products and increasing their water solubility to facilitate the elimination of free radicals, and maintain the redox balance in the body. It plays an important role in the process of protecting cells against oxidative stress damage. The activation of p38 protein phosphorylation has a negative regulatory effect on phase II enzymes. […] Using HO-1 as an indicator, the inhibitory effect of the target compounds on MPTP-induced oxidative stress damage in PD mice can be investigated.
HO-1 is expressed in astrocytes, microglial cells, and neurons. The total proteins of the midbrain tissue of mice in each experiment group were extracted, to determine the expression of phase II enzyme HO-1 in the midbrain of mice by western blot using GAPDH as the internal reference. The experiment included blank control group, MPTP model group, positive control group (caffeic acid phenethyl ester, CAPE), prototype control group (styryl sulfone compounds 3B, 3C, 3D, and 3G, whose structures are shown as above), and target compound group.

Compound: O=C(NC(=O)C(F)(F)F)Oc1ccc(/C=C/S(=O)(=O)C(F)(F)c2ccc(Oc3ccccn3)cc2)cc1OC(=O)C(F)(F)C(F)(F)F [Compound L1-4, (E)-5-{2-[(4-[pyridin-2-yl-oxy]phenyl)difluoromethylsulfonyl]ethenyl}-2-[N-(2,2,2-trifluoroacetyl)carbamoyloxy]phenyl-2,2,3,3,3-pentafluoropropionate]
- inhibition at 2 µM (primary glial cells; 2 μM): 26.7 ± 6.93%
- inhibition at 5 µM (primary glial cells; 5 μM): 50.9 ± 3.72%
- inhibition at 10 µM (primary glial cells; 10 μM): 72.3 ± 4.8%
- Expression (TH/GAPDH) (midbrain TH): 0.79 ± 0.04
- Expression (CD11b/GAPDH) (midbrain CD11b): 1.09 ± 0.09
- Positive cell number (astrocytes with GFAP positive expression) (hippocampus GFAP): 76 ± 4
- Expression (HO-1/GAPDH) (HO-1): 1.13 ± 0.12

Compound: COCCN(C)C(=O)Oc1cc(/C=C/S(=O)(=O)CCc2cccc(-c3ccc(C)o3)c2)ccc1OC(C)=O [Compound J1-4, (E)-2-[N-(2-methoxyethyl)-N-methylcarbamoyloxy]-4-{2-[3-(5-methylfur-2-yl)phenylethylsulfonyl]ethenyl}phenyl acetate]
- inhibition at 2 µM (primary glial cells): 24.8 ± 5.02%
- inhibition at 5 µM (primary glial cells): 40.9 ± 3.94%
- inhibition at 10 µM (primary glial cells): 69.7 ± 5.85%
- Expression (TH/GAPDH) (midbrain TH): 0.89 ± 0.04
- Expression (CD11b/GAPDH) (midbrain CD11b): 0.75 ± 0.06
- Positive cell number (astrocytes with GFAP positive expression) (hippocampus GFAP): 79 ± 2
- Expression (HO-1/GAPDH) (HO-1): 1.25 ± 0.06

Compound: Cc1ccc(N2CCN(C(=O)Oc3ccc(/C=C/S(=O)(=O)CCCC(c4ccc(OC(=O)CN(C)C)cc4)N(C)C)cc3OC(=O)N(C)c3ccccc3)CC2)cc1 (stereo not shown) [Compound P1-1, (E)-4-{2-[4-(dimethylamino)-4-(4-(N,N-dimethylglycyloxy)phenyl)butylsulfonyl]ethenyl}-2-(N-methyl-N-phenylcarbamoyloxy)phenyl-4-(p-methylphenyl)piperazine-1-carboxylate]
- inhibition at 2 µM (primary glial cells): 25.9 ± 3.54%
- inhibition at 5 µM (primary glial cells): 40 ± 2.66%
- inhibition at 10 µM (primary glial cells): 78.4 ± 3.96%
- Expression (TH/GAPDH) (midbrain TH): 0.88 ± 0.04
- Expression (CD11b/GAPDH) (midbrain CD11b): 0.70 ± 0.06
- Positive cell number (astrocytes with GFAP positive expression) (hippocampus GFAP): 72 ± 3
- Expression (HO-1/GAPDH) (HO-1): 1.17 ± 0.05

Compound: CCOC(CS(=O)(=O)/C=C/c1ccc(OC(C)=O)c(OC(=O)Nc2ccc(NC)cc2)c1)C(OCC)c1ccc(OCc2ccccc2)c(O)c1 (stereo not shown) [Compound H2-4, (E)-4-{2-[3-(4-benzyloxy-3-hydroxyphenyl)-2,3-diethoxypropyl]sulfonylethenyl}-2-[N-(4-methylaminophenyl)carbamoyloxy]phenyl acetate]
- inhibition at 2 µM (primary glial cells; 2 μM): 32.2 ± 4.49%
- inhibition at 5 µM (primary glial cells; 5 μM): 50.1 ± 5.37%
- inhibition at 10 µM (primary glial cells; 10 μM): 85.4 ± 4.9%
- Expression (TH/GAPDH) (midbrain TH): 1.02 ± 0.04
- Expression (CD11b/GAPDH) (midbrain CD11b): 0.69 ± 0.04
- Positive cell number (astrocytes with GFAP positive expression) (hippocampus GFAP): 61 ± 5
- Expression (HO-1/GAPDH) (HO-1): 0.95 ± 0.10

Compound: O=S(=O)(/C=C/c1ccc(O)c(O)c1)CCCc1ccccc1 [Compound 3C, (E)-4-{2-[(3-phenylpropyl)sulfonyl]ethenyl}benzene-1,2-diol, reference compound]
- inhibition at 5 µM (primary glial cells; 5 μM): 9.24 ± 4.88%
- inhibition at 10 µM (primary glial cells; 10 μM): 24.6 ± 3.09%
- inhibition at 20 µM (primary glial cells; 20 μM): 45.8 ± 5.25%
- Expression (TH/GAPDH) (midbrain TH): 0.63 ± 0.03
- Expression (CD11b/GAPDH) (midbrain CD11b): 1.02 ± 0.13
- Positive cell number (astrocytes with GFAP positive expression) (hippocampus GFAP): 147 ± 4
- Expression (HO-1/GAPDH) (HO-1): 0.44 ± 0.05

Compound: CCN(CC)C(=O)Oc1ccc(/C=C/S(=O)(=O)CCCc2ccccc2)cc1OC(=O)N(CC)CC [Compound C1-1, (E)-4-[2-(3-phenylpropylsulfonyl)ethenyl]-1,2-phenylenebis(diethylcarbamate)]
- NO inhibitory rate compared with the styryl sulfone prototype compounds (primary glial cells): equivalent or higher inhibitory rate
- inhibition at 5 µM (primary glial cells; 5 μM): 17.6 ± 3.24%
- inhibition at 10 µM (primary glial cells; 10 μM): 32.8 ± 5.25%
- inhibition at 20 µM (primary glial cells; 20 μM): 59.5 ± 4.33%
- Expression (TH/GAPDH) (midbrain TH): 1.20 ± 0.06
- midbrain CD11b protein expression compared with the styryl sulfone prototype compounds (midbrain CD11b): equivalent or lower
- Expression (CD11b/GAPDH) (midbrain CD11b): 1.11 ± 0.08
- number of hippocampus astrocytes with GFAP positive expression compared with the styryl sulfone prototype compounds (hippocampus GFAP): significantly lower
- Positive cell number (astrocytes with GFAP positive expression) (hippocampus GFAP): 78 ± 3
- midbrain HO-1 expression compared with the styryl sulfone prototype compounds (HO-1): significantly higher
- Expression (HO-1/GAPDH) (HO-1): 0.88 ± 0.09

Compound: CNC(=O)Oc1ccc(/C=C/S(=O)(=O)CC(Cl)c2ccc(Cl)c([N+](=O)[O-])c2)cc1O (stereo not shown) [Compound E2-2, (E)-4-{2-[2-chloro-2-(4-chloro-3-nitrophenyl)ethylsulfonyl]ethenyl}-2-hydroxyphenyl-N-methylcarbamate]
- inhibition at 5 µM (primary glial cells): 20.3 ± 4.73%
- inhibition at 10 µM (primary glial cells): 36.8 ± 6.11%
- inhibition at 20 µM (primary glial cells): 68.9 ± 3.75%
- Expression (TH/GAPDH) (midbrain TH): 0.97 ± 0.03
- Expression (CD11b/GAPDH) (midbrain CD11b): 1.17 ± 0.06
- Positive cell number (astrocytes with GFAP positive expression) (hippocampus GFAP): 50 ± 5
- Expression (HO-1/GAPDH) (HO-1): 1.58 ± 0.08

Compound: COc1ccc(CC(=O)Oc2ccc(/C(C)=C/S(=O)(=O)/C=C/c3ccc(OC(=O)N(C)C)c(O[Si](C)(C)CCl)c3)cc2)cc1 [Compound P1-7, 4-{(E)-1-[(E)-3-(chloromethyldimethylsiloxy)-4-(N,N-dimethylcarbamoyloxy)styrylsulfonyl]prop-1-en-2-yl}phenyl-2-(4-methoxyphenyl) acetate]
- inhibition at 5 µM (primary glial cells): 21.3 ± 4.43%
- inhibition at 10 µM (primary glial cells): 41.2 ± 1.95%
- inhibition at 20 µM (primary glial cells): 71 ± 3.67%
- Expression (TH/GAPDH) (midbrain TH): 0.88 ± 0.06
- Expression (CD11b/GAPDH) (midbrain CD11b): 0.39 ± 0.03
- Positive cell number (astrocytes with GFAP positive expression) (hippocampus GFAP): 49 ± 4
- Expression (HO-1/GAPDH) (HO-1): 0.71 ± 0.09

Compound: CC(C)N(c1ccc(CCS(=O)(=O)/C=C/c2ccc(OC(=O)N(C)c3ccc(I)cc3)c(OCCOCc3ccccc3)c2)cc1)C(C)C [Compound A1-3, (E)-2-(2-benzyloxyethoxy)-4-{2-[4-(N,N-diisopropylamino)phenylethylsulfonyl]ethenyl}phenyl-N-(4-iodophenyl)-N-methylcarbamate]
- inhibition at 5 µM (primary glial cells): 19.6 ± 3.67%
- inhibition at 10 µM (primary glial cells): 43.2 ± 2.36%
- inhibition at 20 µM (primary glial cells): 62.1 ± 4.73%
- Expression (TH/GAPDH) (midbrain TH): 0.93 ± 0.07
- Expression (CD11b/GAPDH) (midbrain CD11b): 1.12 ± 0.06
- Positive cell number (astrocytes with GFAP positive expression) (hippocampus GFAP): 55 ± 3
- Expression (HO-1/GAPDH) (HO-1): 0.66 ± 0.05
